The text below walks through data of PMC3235747, “Bioassay-Guided Isolation of Cytotoxic Cycloartane Triterpenoid Glycosides from the Traditionally Used Medicinal Plant Leea indica” (Evidence-based Complementary and Alternative Medicine : eCAM, 2011).

Format in all cases: cell-based, human
One series has as its system MRC 5 normal cells. The series can be described thus: MTT assay, 72 h exposure, MRC 5 normal cells. As to conditions: for IC50: Homo sapiens, MRC5, 72 h; for fold higher IC50 against MRC 5 compared to CPT: MRC 5, relative to camptothecin. As to the method:
(§1) The human cervical epidermoid carcinoma cell line (Ca Ski, ATCC number CRL-1550) and human fibroblast cell line (MRC 5, ATCC number CCL-171) were purchased from the American Type Culture Collection (ATCC, USA). Ca Ski cells were maintained in RPMI 1640 Medium (Sigma) and MRC 5 cells in EMEM (Eagle Minimum Essential Medium) (Sigma). The media were supplemented with 10% (v/v) heat-inactivated fetal bovine serum (PAA Lab, Austria), 100 μg/mL streptomycin and 100 unit/mL penicillin (PAA Lab, Austria), and 50 μg/mL amphotericin B (PAA Lab, Austria). The media were filter-sterilized using a 0.22 μm filter membrane (Minisart, Sartorius stedim). The cells were cultured in 5% CO2 incubator at 37°C in a humidified atmosphere. MTT assay was modified from Mossmann and used to evaluate the cytotoxic effects of each fraction and compounds. MTT assay is widely used to assess the viability and/or the metabolic state of the cells based on mitochondrial respiratory activity. A total of 5 × 10^3 cells were seeded into each well of 96-well plates and allowed to adhere for 24 h. After 24 h, the cells were treated with the fractions or compounds in the final concentrations ranging from 3.125 to 100 μg/mL. Each concentration was performed in triplicate well. Control cells were treated with vehicle DMSO to get the final concentration of 0.5% v/v. The cells were then incubated for 72 h. After 72 h exposure period, MTT (5 mg/mL) was added and further incubated for 4 h at 37°C. The medium was then aspirated and the crystals formed were dissolved in 150 μL DMSO. The absorbance was measured at 570 nm against the reference wavelength of 650 nm. The percentage of viability was calculated based on the formula: Viability (%) = (absorbance of treated cells/absorbance of control cells) × 100%. The IC50 (concentration that reduces cell viability to 50%) was derived from the dose-response curves. MRC 5 cell line was used as a normal cell model for the calculation of selectivity index (SI). SI value was calculated by dividing the IC50 value of the MRC 5 cell line with the IC50 value of Ca Ski cell line.
For orientation: Tetrazolium assays rely on reduction of a dye to a coloured formazan, in cell work by metabolically active cells.

Series [1] has as its system Ca Ski cells. The series can be described thus: MTT recovery assay (72 h exposure then 72 h recovery). As to the method:
In order to determine whether the cytotoxicity is cytostatic or cytocidal, a recovery assay was conducted whereby after the 72 h incubation (exposure period), the medium containing the compound was removed, washed with medium, and replaced with medium alone for a recovery period of 72 h followed by addition of MTT and measurement as described earlier. A sample is showing cytostatic effect when the IC50 in the recovery assay was higher than that of the exposure assay. Whereas for cytocidal effect, the IC50 obtained in the recovery assay is similar to that shown by the exposure assay.

Series [2] relates to Ca Ski cells. The series can be described thus: Cell cycle analysis by PI staining and flow cytometry. As to conditions: 60 μM. The method, then:
The cell cycle distribution was assessed using propidium iodide (PI) staining. Ca Ski cells were seeded in 60 mm culture dishes (1 × 10^6 cells) and left 24 h for attachment. The cells were then treated without or with 60 μM MAA for 12–72 h. After the designated treatment period, both adherent and floating cells were harvested and washed twice with PBS. Cell pellets were resuspended in 100 μL of PBS and fixed with absolute ethanol and stored at −20°C for 24 h. Fixed cells were washed twice with PBS, and the cell pellets were incubated in a buffer containing 50 μg/mL PI, 0.1% sodium citrate, 0.1% Triton-X-100, and 100 μg/mL RNase A for 45 min in the dark at room temperature. The percentage of cells in the sub-G1, G1, S, and G2/M-phases of the cell cycle was then analyzed using a FACS Calibur flow cytometer (Beckton Dickinson). Data were acquired and analyzed using Cell Quest software (Becton Dickinson).
Background: A flow cytometer gives signals particle by particle.

The test system of series [3] is proliferating cell nuclear antigen (PCNA) expression in Ca Ski cells. The series can be described thus: Q-PCR analysis of PCNA expression. As to conditions: 20–100 μM for 24 h; 60 μM for 0–24 h; relative to untreated control, normalized with GAPDH. As to the method:
A total of 1 × 10^6 Ca Ski cells were seeded into 60 mm culture dishes and incubated for 24 h for attachment. Cells were then treated without or with 20-100 μM of MAA for 24 h. For time-course study, cells were treated with 60 μM MAA for 0, 3, 6, 12, and 24 h. After specific treatment period, cells were harvested and total RNA was isolated using the RNAqueous-4PCR kit (Applied Biosystem) according to the manufacturer's directions. The RNA concentration was determined using spectrophotometry. The gene expression of PCNA was assessed by one-step SYBR Green relative real-time PCR (Rotor-Gene System, Qiagen) and normalized to GAPDH reference control amplifications. The primer sequences for PCNA and GAPDH were forward [NT], reverse [NT] and forward [NT], reverse [NT], respectively. The PCR amplification reactions were carried out in a total volume of 25 μL for 30 cycles of 45 seconds at 95°C, 45 seconds at 56°C, and 120 seconds at 72°C. The mean fluorescence threshold value (CT) of each sample was obtained according to the manufacturer's guidelines and used to determine ΔCT values where by ΔCT = CT target gene (PCNA) - CT reference gene (GAPDH).

The subject of series [4] is Ca Ski cells. The series can be described thus: Trypan blue exclusion (TBE) assay, viable cell count. As to conditions: 60 μM. The method, then: Ca Ski cells were cultured at a density of 1 × 10^6 cells/mL in 60 mm culture dishes. After 24 h of attachment, the cells were treated without or with 60 μM of MAA for different time periods. After 6–72 h, the cells were harvested, washed with medium, and the cell pellets were resuspended in medium. After incubation in 0.4% trypan blue for 5 min, viable cells were counted using a hemocytometer. At the indicated time point straight before the cells were harvested, the cells were visualized under an inverted phase-contrast microscope (Motic) to observe the cell morphological changes upon treatment, and photographs were taken.

A short description of series [5]: MTT assay, 72 h exposure, Ca Ski cells. As to conditions: human. As to the method:
as §1, with “curves.” for “curves. MRC 5 cell line was used as a normal cell model for the calculation of selectivity index (SI). SI value was calculated by dividing the IC50 value of the MRC 5 cell line with the IC50 value of Ca Ski cell line.”

Series [6] relates to Ca Ski cervical cancer cells. In words: MTT assay, 72 h exposure, Ca Ski cells. Conditions: for decrease in cell viability: Ca Ski cells, 3.125–100 μg/mL. As to the method: as §1, with “curves.” for “curves. MRC 5 cell line was used as a normal cell model for the calculation of selectivity index (SI). SI value was calculated by dividing the IC50 value of the MRC 5 cell line with the IC50 value of Ca Ski cell line.”

Setting [7] is: Homo sapiens, Ca-Ski, 72 h, MTT, 72 h exposure.

Converted amounts (≈) assume the structure as drawn. “And” between values parts separate entries of the source, which are not always exact repeats. Equal entries are not always repeated. Where two headings read alike, the source gives them in different places.

On to `CC(C)=CCCC(C)C1CCC2(C)C3CCC4C(C)(C(=O)O)C(OC5OCC(O)C(O)C5O)CC(O)C45CC35CCC12C` [MAA, 1α, 3β-dihydroxy-cycloart-24-ene-28-oic acid 3-O-[α-L-arabinopyranoside]], for which the IC50 – broadly, the concentration needed to halve the response being measured – was 94.32 ± 0.75 µg/mL (≈ 156 µM) with MRC 5 normal cells (MTT, 72 h exposure); 19.2 µM and 11.6 µg/mL in series [6] (setting [7]). The “fold higher IC50 against MRC 5 compared to CPT” value with MRC 5 normal cells is “approximately 20 fold”. Moreover, in the series on Ca Ski cells [1], the “IC50 in the recovery assay compared with the exposure assay” value is listed as “almost the same to the exposure assay”. In addition, the “proportion of S-phase and G2/M-phase cells versus untreated cells” value in the series with Ca Ski cells [2] (12 and 24 h) is given as “significantly higher”. Also, in the series on Ca Ski cells [2] (after 72 h), the “increase of hypodiploid (sub-G1) cells” value was “about 20 fold”. For the same compound, the “expression of PCNA” value in series [3] was “significantly decreased”. In addition, the “effect on cell proliferation (viable cell count)” value is recorded as “modestly inhibited the cell proliferation” with Ca Ski cells [4] (6 h); “prominent antiproliferative effect” in the series with Ca Ski cells [4] (12 h and 24 h). Also, in series [5] (Ca Ski cervical carcinoma cells vs MRC 5 fibroblast cells, Ca Ski vs MRC 5, read-out: selectivity index (IC50 MRC 5 / IC50 Ca Ski), times more cytotoxic to Ca Ski cells compared to MRC5), the selectivity ratio at 72 h was around 8. Further, the “decrease in cell viability” value in series [6] (72 h) was 20–95%.

With `CC(C)=CCCC(C)C1CCC2(C)C3CCC4C(C)(C(=O)O)C(OC5OCC(O)C(O)C5O)CC(O)C45CC35CCC12C` [MAX, 1α, 3β-dihydroxy-cycloart-24-ene-28-oic acid 3-O-[β-D-xylopyranoside]], the “fold higher IC50 against MRC 5 compared to CPT” value with MRC 5 normal cells is around 17 fold. For the same compound, in the series on MRC 5 normal cells (MTT, 72 h exposure), the “IC50 on MRC 5” value was determined as 79.25 ± 0.66 µg/mL (≈ 131 µM). For the same compound, in series [5], the selectivity ratio at 72 h is around 4. Also, the “decrease in cell viability” value in series [6] (72 h) is on record as 6–90%. Moreover, in series [6] (MTT, 72 h exposure), it took 33.3 µM to reach half-maximal inhibition (IC50) and the “IC50 for Ca Ski cells” value amounted to 20.13 ± 0.21 µg/mL.

With `CC[C@@]1(O)C(=O)OCc2c1cc1n(c2=O)Cc2cc3ccccc3nc2-1` [camptothecin, reference compound], the IC50 in the series with MRC 5 normal cells (MTT, 72 h exposure) was 4.74 ± 0.33 µg/mL (≈ 13.6 µM); in series [6] (setting [7]), 2.51 ± 0.33 µg/mL.
